Patent publication US20230123334A1, “AMINO LIPID COMPOUND, PREPARATION METHOD THEREFOR, AND APPLICATION THEREOF” (SHENZHEN SHENXIN BIOTECHNOLOGY CO., LTD., priority 2020, published 2023)

Tests used:
HEK293 cells [1] = assay: Preliminary screening as DNA vectors, GFP transfection of HEK293 cells; format: cell-based; settings: HEK293 cells; lipid/DOPE liposome with 75 ng plasmid DNA (psin-EGFP-IRES-Puro); number of cells expressing GFP divided by total number of nuclei (Hoechst)
Summary of the method: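 HEK293 cells in DMEM/10% FBS transfected with 75 ng EGFP plasmid per well complexed with amino lipid/DOPE liposomes in pH 5.6 sodium acetate. Hoechst nuclear stain added 20-24 h post-transfection, then cells cultured another 20-24 h. Confocal imaging gives GFP-positive cells as % of total nuclei.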

HEK293 cells [2] = assay: Preliminary screening as mRNA vectors, EGFP mRNA transfection of HEK293 cells; format: cell-based; settings: HEK293 cells, 96-well plates, EGFP mRNA 50 ng per well; percentage of GFP fluorescent cells relative to total number of cells (Hoechst)
Summary of the method: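 HEK293 cells in DMEM plus 10% FBS transfected in 96-well format with 50 ng EGFP mRNA per well; Lipofectamine2000 served as positive control. Read-out is the percentage of GFP-fluorescent cells among total cells, counted by Hoechst nuclear stain.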

Row | Structure (SMILES) | Absolute DNA transfection efficiency in HEK293 cells (HEK293 cells [1]) [%] | Absolute mRNA transfection efficiency in HEK293 cells (HEK293 cells [2]) [%]
1 | CCCCCCCCCCCCCCCSc1nc(NCC2CCN(C)CC2)nc(SCCCCCCCCCC)n1 [Compound S10S15D10] | 55.8 | 19.4
2 | CCCCCCCCCNc1nc(NCCCCCCC)nc(NCCCN2CCOCC2)n1 [Compound N7N9D8] | 0.0 | 0.0
3 | CCCCCCCCCCCCCCCCNc1nc(NCCCCCCCCCCC)nc(NCC2CCN(C)CC2)n1 [Compound N11N16D10] | 0.6 | 1.1
4 | CCCCCCCCCCCCCCSc1nc(NCCN2CCCCC2)nc(SCCCCCCCCCCC)n1 [Compound S11S14D4] | 3.7 | 0.2
5 | CCCCCCCCCCCCCNc1nc(NCCCCCC)nc(NCCN2CCOCC2)n1 [Compound N6N13D2] | 0.0 | 0.0
6 | CCCCCCCCCCCCCCCCCCNc1nc(NCCCCCCC)nc(NCCN2CCCC2)n1 [Compound N7N18D3] | 5.0 | 0.1
7 | CCCCCCCNc1nc(NCCCCCC)nc(NCCN2CCOCC2)n1 [Compound N6N7D2] | 0.0 | 0.4
8 | CCCCCCCCCCCCCNc1nc(NCCCCCCCCC)nc(NCC2CCN(C)CC2)n1 [Compound N9N13D10] | 0.3 | 2.8
9 | CCCCCCCCCCCCCNc1nc(NCCCCCCC)nc(NCC2CCN(C)CC2)n1 [Compound N7N13D10] | 1.6 | 1.6
10 | CCCCCCCCCCCCCCCCCCNc1nc(NCCCCCCCCCCCC)nc(NCCN2CCN(C)CC2)n1 [Compound N12N18D5] | 0.0 | 1.9
11 | CCCCCCCCCCCCCCCCCCSc1nc(NCCCN2CCN(C)CC2)nc(SCCCCCCCCCCCC)n1 [Compound S12S18D9] | 1.0 | 0.0
12 | CCCCCCCCCCCCCCCSc1nc(NCCN2CCCC2)nc(SCCCCCCCCCCCC)n1 [Compound S12S15D3] | 2.9 | 9.7
13 | CCCCCCCCCCCCCCSc1nc(NCCN(CC)CC)nc(SCCCCCCCCCCCC)n1 [Compound S12S14D7] | 3.3 | 0.9
14 | CCCCCCCCCCCCCCCCNc1nc(NCCCCCCCCCCCCCCCC)nc(NCCCN2CCN(C)CC2)n1 [Compound N16N16D9] | 1.9 | 0.0
15 | CCCCCCCCCNc1nc(NCCCCCCC)nc(NCC2CCN(C)CC2)n1 [Compound N7N9D10] | 0.4 | 0.1
16 | CCCCCCCCCCCCCCCNc1nc(NCCCCCCCCCCCC)nc(NCC2CCN(C)CC2)n1 [Compound N12N15D10] | 0.7 | 1.2
17 | CCCCCCCCCCCCN(CCCCCCCCCCCC)c1nc(NCCCCCCC)nc(NCCN(C)C)n1 [N7^2N12D1] | 3.6 | 3.5
18 | CCCCCCCCCCCCCCCSc1nc(NCCN(C)C)nc(SCCCCCCCCCC)n1 [Compound S10S15D1] | 6.8 | 0.0
19 | CCCCCCCCCCCCCCCCCCNc1nc(NCCCCCCC)nc(NCCN2CCCCC2)n1 [Compound N7N18D4] | 0.2 | 0.1
20 | CCCCCCCCCCCCNc1nc(NCCCCCCCCC)nc(NCCCN2CCOCC2)n1 [Compound N9N12D8] | 0.0 | 0.0
21 | CCCCCCCCCCCNc1nc(NCCCCCCCCC)nc(NCCN2CCCC2)n1 [Compound N9N11D3] | 0.0 | 1.8
22 | CCCCCCCCCCCNc1nc(NN)nc(NCCCN2CCN(C)CC2)n1 [Compound N6N11D9] | 0.0 | 0.0
23 | CCCCCCCCCCCCCCSc1nc(NCCCN2CCOCC2)nc(SCCCCCCCCCCCCCC)n1 [Compound S14S14D8] | 0.0 | 0.0
24 | CCCCCCCCCCCCCCCCCCNc1nc(NCCCCCC)nc(NCCCN2CCOCC2)n1 [Compound N6N18D8] | 0.3 | 0.0

Row | Structure (SMILES) | Absolute DNA transfection efficiency in HEK293 cells (HEK293 cells [1]) [%] | Absolute mRNA transfection efficiency in HEK293 cells (HEK293 cells [2]) [%]
25 | CCCCCCCCCNc1nc(NCCCCCCCCC)nc(NCCN2CCCC2)n1 [Compound N9N9D3] | 0.3 | 0.2
26 | CCCCCCCCCCCCCCCCNc1nc(NCCCCCCCCCCCC)nc(NCCCN(C)C)n1 [Compound N12N16D6] | 1.9 | 1.9
27 | CCCCCCCCCCCCSc1nc(NCCN(CC)CC)nc(SCCCCCCCCCC)n1 [Compound S10S12D7] | 7.2 | 0.0
28 | CCCCCCCCCCCCCCCCNc1nc(NCCCCCC)nc(NCCN2CCCCC2)n1 [Compound N6N16D4] | 0.0 | 0.0
29 | CCCCCCCCCCCSc1nc(NCCCN2CCN(C)CC2)nc(SCCCCCCCCC)n1 [Compound S9S11D9] | 8.5 | 49.7
30 | CCCCCCCCCCCCN(CCCCCCCCCCCC)c1nc(NCCCN(C)C)nc(N(CCCCCCCCCCCC)CCCCCCCCCCCC)n1 [2N12^2N12D6] | 0.0 | 0.2
31 | CCCCCCCCCCCCCCCCNc1nc(NCCCCCCCCCCC)nc(NCCN2CCCC2)n1 [Compound N11N16D3] | 1.2 | 3.6
32 | CCCCCCCCCCCCCCCCNc1nc(NCCCCCCCC)nc(NCCN2CCOCC2)n1 [Compound N8N16D2] | 0.8 | 0.2
33 | CCCCCCCCCCCCCCCCNc1nc(NCCCCCCCC)nc(NCCN(C)C)n1 [Compound N8N16D1] | 3.8 | 4.6
34 | CCCCCCCCCCCCCCCCCCSc1nc(NCCN(C)C)nc(SCCCCCCCC)n1 [Compound S8S18D1] | 7.6 | 3.9
35 | CCCCCCCCCCCCCCCCNc1nc(NCCCCCCC)nc(NCCN(C)C)n1 [Compound N7N16D1] | 0.9 | 0.5
36 | CCCCCCCCCCCCCCCSc1nc(NCCN2CCN(C)CC2)nc(SCCCCCCCCCCCCCCC)n1 [Compound S15S15D5] | 0.3 | 0.3
37 | CCCCCCCCNc1nc(NCCCCCCC)nc(NCCCN(C)C)n1 [Compound N7N8D6] | 0.0 | 0.0
38 | CCCCCCCCCCCCCCCCNc1nc(NCCCCCCCCCCCCCCC)nc(NCCN2CCCC2)n1 [Compound N15N16D3] | 2.5 | 6.1
39 | CCCCCCCCCCCNc1nc(NCCCCCC)nc(NCCCN2CCOCC2)n1 [Compound N6N11D8] | 0.0 | 0.1
40 | CCCCCCCCCCCCCCCCCCSc1nc(NCCN2CCCCC2)nc(SCCCCCCCCCCC)n1 [Compound S11S18D4] | 3.3 | 1.4
41 | CCCCCCCCCCCCCCCCCCSc1nc(NCCN2CCN(C)CC2)nc(SCCCCCCCCC)n1 [Compound S9S18D5] | 4.0 | 22.0
42 | CCCCCCCCCNc1nc(NCCCCCC)nc(NCCN2CCN(C)CC2)n1 [Compound N6N9D5] | 0.0 | 0.1
43 | CCCCCCCCCCCCCCCCCCSc1nc(NCCCN(C)C)nc(SCCCCCCCCCCC)n1 [Compound S11S18D6] | 3.6 | 6.0
44 | CCCCCCCCCCCSc1nc(NCCCN2CCOCC2)nc(SCCCCCCCCC)n1 [Compound S9S11D8] | 21.8 | 24.4
45 | CCCCCCCCCCCCNc1nc(NCCCCCCCC)nc(NCCCN2CCOCC2)n1 [Compound N8N12D8] | 0.0 | 0.0
46 | CCCCCCCCCCCCCCSc1nc(NCCCN(C)C)nc(SCCCCCCCCCCCC)n1 [Compound S12S14D6] | 4.0 | 4.6
47 | CCCCCCCCCCCCCCCCCCNc1nc(NCCCCCCCCC)nc(NCCN(C)C)n1 [Compound N9N18D1] | 4.0 | 5.1
48 | CCCCCCCCCCCCNc1nc(NCCCCCCC)nc(NCCN(CC)CC)n1 [Compound N7N12D7] | 0.0 | 0.0
